{
  "source": "patent US20180362485A1",
  "about": "“N-HYDROXYFORMAMIDE COMPOUNDS AND COMPOSITIONS COMPRISING THEM FOR USE AS BMP l, TLL1 AND/OR TLL2 INHIBITORS” (GlaxoSmithKline Intellectual Property (No. 2) Limited, priority 2015, published 2018)",
  "biological_target": "T1, human TLL2 (Homo sapiens, UniProt Q9Y6L7)",
  "T1 construct": "amino acids 26-1015 of human TLL2 (NM_012465); made in house",
  "T1 sequence (Q9Y6L7 150-1015)": "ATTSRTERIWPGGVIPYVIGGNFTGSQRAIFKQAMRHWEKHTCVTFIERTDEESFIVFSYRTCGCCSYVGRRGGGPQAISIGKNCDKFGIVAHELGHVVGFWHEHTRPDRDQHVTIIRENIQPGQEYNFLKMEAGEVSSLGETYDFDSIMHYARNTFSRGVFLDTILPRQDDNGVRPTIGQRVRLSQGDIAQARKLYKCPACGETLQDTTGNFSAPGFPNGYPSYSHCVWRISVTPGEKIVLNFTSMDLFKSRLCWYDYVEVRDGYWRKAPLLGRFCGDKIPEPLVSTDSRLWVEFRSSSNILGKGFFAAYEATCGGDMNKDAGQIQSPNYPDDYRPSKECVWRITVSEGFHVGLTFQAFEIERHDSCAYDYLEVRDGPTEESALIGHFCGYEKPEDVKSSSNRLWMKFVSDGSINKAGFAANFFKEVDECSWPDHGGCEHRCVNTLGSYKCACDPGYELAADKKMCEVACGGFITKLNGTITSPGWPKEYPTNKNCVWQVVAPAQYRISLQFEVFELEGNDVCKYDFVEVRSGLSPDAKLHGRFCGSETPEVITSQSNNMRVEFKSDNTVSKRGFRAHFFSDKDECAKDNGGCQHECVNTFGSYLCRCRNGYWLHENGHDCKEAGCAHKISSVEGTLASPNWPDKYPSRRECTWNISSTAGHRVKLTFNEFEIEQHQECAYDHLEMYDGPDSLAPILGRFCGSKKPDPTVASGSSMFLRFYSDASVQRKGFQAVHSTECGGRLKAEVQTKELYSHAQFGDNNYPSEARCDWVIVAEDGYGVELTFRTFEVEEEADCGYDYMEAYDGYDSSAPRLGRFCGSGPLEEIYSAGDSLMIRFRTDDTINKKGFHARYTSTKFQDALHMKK",
  "assay": "Enzyme inhibition assay for human TLL2",
  "assay_type": "biochemical",
  "details": "18 nM TLL2, 5 μM promyostatin peptide substrate; read-out: pIC50, TLL2 enzyme inhibition assay (converted)",
  "from_the_text": "Buffer components are purchased from Sigma-Aldrich (St. Louis, Mo.) or an equivalent supplier. The promyostatin peptide substrate is custom synthesized by American Peptide Company (Sunnyvale, Calif.) using the myostatin protein sequence (Uniprot accession number 014793) surrounding the cleavage site reviewed in Hopkins, D. R., et al., 2007 Matrix Biology, 26, 508-523. The procollagen peptide substrate used in the high enzyme BMP1 cleavage assay is custom synthesized by 21st Century Biochemicals (Marlboro, Mass.) using the procollagen Iα protein sequence (Uniprot accession number P02452) surrounding the cleavage site reviewed in Hopkins, D. R., et al., 2007 Matrix Biology, 26, 508-523.\nThe DNA sequence encoding amino acids 26-1015 of human TLL2 (NM_012465) is PCR amplified from DNA template with the human RAGE signal sequence at the N-terminus and Avi-6×His epitope tags at the C-terminus ([…]). […]\nInhibition of human TLL1 and TLL2 recombinant enzymes is measured in 10 ul endpoint assays in 384-well format using the same promyostatin peptide substrate employed in the above Enzyme Inhibition Assay for human BMP1. […] TLL1 and TLL2 reactions are quenched with 5 μl of 0.5 M EDTA and plates are read on a ViewLux (Perkin Elmer) multilabel plate reader using a 480 nm excitation filter and 540 nm emission filter. […]",
  "data": [
    {"smiles": "CCCCC[C@@H](C(=O)NCNC(=O)c1ccc(-c2ccc(C(=O)O)cc2)o1)[C@@H](CC)N(O)C=O", "note": "[WO2015/104684 Example 71, 4-(5-((((R)-2-((R)-1-(N-hydroxyformamido)propyl)heptanamido)methyl)carbamoyl)furan-2-yl)benzoic acid]", "values": [
      {"measurement": "IC50", "result": "< 794", "unit": "nM"}
    ]}
  ]
}
